Format in all cases: ADME
Data set [1] deals with T1, Solute carrier family 22 member 6 (Homo sapiens, UniProt Q4U2R8).
T1 sequence (Q4U2R8 whole entry): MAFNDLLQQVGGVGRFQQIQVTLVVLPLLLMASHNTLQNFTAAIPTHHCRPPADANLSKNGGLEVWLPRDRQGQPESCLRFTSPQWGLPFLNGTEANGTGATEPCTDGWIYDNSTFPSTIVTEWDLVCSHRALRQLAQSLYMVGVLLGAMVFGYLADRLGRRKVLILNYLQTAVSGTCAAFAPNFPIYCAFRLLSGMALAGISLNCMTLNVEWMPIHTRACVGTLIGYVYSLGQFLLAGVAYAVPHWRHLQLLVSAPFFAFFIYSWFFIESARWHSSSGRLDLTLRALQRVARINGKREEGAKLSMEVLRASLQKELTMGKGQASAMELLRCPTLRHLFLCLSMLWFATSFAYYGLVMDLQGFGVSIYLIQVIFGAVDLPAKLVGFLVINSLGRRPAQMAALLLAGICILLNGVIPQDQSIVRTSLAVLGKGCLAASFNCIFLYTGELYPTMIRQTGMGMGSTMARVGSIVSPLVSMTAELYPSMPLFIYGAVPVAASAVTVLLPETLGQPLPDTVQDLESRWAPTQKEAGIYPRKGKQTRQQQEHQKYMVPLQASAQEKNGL
Description: Substrates of transporters of clinical importance in the absorption and disposition of drugs, OAT1.

Data set [2] concerns the target T2, ATP-binding cassette sub-family C member 4 (Homo sapiens, UniProt O15439).
T2 sequence (O15439 whole entry): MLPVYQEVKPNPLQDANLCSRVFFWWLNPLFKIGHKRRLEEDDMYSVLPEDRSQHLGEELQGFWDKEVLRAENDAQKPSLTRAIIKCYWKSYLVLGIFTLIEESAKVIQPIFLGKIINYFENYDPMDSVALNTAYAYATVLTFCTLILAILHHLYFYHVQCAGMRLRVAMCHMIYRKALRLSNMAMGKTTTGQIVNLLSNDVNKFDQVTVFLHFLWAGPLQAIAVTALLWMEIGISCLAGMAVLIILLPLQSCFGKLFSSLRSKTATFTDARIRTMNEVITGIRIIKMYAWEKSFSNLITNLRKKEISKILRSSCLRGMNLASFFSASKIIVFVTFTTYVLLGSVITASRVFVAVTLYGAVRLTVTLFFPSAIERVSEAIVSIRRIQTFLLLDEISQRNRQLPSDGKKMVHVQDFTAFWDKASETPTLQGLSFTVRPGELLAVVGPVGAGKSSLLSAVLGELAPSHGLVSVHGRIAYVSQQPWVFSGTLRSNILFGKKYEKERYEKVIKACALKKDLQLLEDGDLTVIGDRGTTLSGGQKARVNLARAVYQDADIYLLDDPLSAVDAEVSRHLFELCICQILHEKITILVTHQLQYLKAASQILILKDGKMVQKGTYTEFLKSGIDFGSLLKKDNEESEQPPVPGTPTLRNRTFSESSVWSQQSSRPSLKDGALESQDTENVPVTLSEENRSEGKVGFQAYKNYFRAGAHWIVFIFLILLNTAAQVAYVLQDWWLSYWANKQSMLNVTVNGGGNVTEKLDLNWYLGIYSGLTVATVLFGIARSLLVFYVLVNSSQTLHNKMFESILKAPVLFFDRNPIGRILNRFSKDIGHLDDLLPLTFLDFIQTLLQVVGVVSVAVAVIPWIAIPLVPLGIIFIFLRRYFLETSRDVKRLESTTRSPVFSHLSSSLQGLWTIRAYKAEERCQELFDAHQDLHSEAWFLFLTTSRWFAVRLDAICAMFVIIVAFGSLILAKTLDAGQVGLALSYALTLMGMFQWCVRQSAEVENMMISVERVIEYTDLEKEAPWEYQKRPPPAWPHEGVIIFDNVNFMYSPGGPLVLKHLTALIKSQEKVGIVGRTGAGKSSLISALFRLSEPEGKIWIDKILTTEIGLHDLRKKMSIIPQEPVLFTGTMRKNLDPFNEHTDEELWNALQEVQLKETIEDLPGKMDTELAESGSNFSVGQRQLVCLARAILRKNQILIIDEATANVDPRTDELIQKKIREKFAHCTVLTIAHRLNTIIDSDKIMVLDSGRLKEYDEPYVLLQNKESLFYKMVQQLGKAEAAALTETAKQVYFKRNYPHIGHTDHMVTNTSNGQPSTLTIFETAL
Briefly: Substrates of transporters of clinical importance in the absorption and disposition of drugs, MRP4.

The target in data set [3] is T3, Organic anion transporter 3 (Homo sapiens, UniProt Q8TCC7).
T3 sequence (Q8TCC7 whole entry): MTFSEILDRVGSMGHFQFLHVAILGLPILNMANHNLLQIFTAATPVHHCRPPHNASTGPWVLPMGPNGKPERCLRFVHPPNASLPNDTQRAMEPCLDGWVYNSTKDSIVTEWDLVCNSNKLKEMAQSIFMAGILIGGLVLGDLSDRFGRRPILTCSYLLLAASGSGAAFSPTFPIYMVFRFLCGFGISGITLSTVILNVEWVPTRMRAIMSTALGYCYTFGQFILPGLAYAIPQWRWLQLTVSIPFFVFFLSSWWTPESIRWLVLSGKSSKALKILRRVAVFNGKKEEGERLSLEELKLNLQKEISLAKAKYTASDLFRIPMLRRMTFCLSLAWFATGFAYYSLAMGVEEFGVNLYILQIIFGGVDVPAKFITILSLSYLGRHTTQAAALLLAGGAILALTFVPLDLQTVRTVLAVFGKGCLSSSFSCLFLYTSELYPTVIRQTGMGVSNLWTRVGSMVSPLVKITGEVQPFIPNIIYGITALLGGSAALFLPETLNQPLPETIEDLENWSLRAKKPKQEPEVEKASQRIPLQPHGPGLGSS
Briefly: Substrates of transporters of clinical importance in the absorption and disposition of drugs, OAT3.

In data set [4] the target is T4, Solute carrier organic anion transporter family member 2B1 (Homo sapiens, UniProt O94956).
T4 sequence (O94956 whole entry): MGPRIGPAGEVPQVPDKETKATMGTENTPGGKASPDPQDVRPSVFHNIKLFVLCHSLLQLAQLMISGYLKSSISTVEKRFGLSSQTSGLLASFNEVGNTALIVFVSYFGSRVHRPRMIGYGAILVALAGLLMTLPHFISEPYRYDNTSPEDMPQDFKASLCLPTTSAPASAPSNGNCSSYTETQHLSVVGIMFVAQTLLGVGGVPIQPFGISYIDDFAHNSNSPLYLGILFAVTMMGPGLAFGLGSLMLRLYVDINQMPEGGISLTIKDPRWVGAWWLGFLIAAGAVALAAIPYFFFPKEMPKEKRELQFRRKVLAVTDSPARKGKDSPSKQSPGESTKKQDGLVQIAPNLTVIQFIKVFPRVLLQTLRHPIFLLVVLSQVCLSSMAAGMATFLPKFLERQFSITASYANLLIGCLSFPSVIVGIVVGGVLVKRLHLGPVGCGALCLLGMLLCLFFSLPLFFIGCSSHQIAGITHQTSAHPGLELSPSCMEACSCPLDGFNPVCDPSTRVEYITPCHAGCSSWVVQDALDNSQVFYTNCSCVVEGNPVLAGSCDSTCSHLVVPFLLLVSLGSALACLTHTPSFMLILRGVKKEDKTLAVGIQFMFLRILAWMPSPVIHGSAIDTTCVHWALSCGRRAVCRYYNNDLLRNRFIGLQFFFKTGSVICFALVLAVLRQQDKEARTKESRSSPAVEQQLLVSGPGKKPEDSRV
Description: Substrates of transporters of clinical importance in the absorption and disposition of drugs, OATP2B1.

Data set [5] has as its target T5, Solute carrier organic anion transporter family member 1B1 (Homo sapiens, UniProt Q9Y6L6).
T5 sequence (Q9Y6L6 whole entry): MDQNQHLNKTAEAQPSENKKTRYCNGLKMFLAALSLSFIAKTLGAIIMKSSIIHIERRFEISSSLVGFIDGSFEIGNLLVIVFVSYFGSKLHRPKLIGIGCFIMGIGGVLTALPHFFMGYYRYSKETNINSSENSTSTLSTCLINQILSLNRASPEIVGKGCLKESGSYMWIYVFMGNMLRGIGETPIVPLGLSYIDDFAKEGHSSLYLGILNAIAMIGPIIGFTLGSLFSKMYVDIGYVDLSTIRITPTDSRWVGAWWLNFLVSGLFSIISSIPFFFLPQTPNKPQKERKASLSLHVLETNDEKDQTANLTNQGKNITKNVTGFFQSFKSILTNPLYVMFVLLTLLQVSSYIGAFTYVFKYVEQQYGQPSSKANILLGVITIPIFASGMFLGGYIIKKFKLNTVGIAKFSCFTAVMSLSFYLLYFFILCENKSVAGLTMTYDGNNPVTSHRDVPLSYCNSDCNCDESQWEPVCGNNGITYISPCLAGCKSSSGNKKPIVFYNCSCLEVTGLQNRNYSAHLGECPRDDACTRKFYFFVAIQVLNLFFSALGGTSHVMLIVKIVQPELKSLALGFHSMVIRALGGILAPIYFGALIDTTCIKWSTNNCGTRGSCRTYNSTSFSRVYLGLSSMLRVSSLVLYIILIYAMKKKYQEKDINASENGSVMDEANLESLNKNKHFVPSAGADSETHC
Description: Substrates of transporters of clinical importance in the absorption and disposition of drugs, OATP1B1.

For data set [6], the target named is T6, Solute carrier organic anion transporter family member 1B3 (Homo sapiens, UniProt Q9NPD5).
T6 sequence (Q9NPD5 whole entry): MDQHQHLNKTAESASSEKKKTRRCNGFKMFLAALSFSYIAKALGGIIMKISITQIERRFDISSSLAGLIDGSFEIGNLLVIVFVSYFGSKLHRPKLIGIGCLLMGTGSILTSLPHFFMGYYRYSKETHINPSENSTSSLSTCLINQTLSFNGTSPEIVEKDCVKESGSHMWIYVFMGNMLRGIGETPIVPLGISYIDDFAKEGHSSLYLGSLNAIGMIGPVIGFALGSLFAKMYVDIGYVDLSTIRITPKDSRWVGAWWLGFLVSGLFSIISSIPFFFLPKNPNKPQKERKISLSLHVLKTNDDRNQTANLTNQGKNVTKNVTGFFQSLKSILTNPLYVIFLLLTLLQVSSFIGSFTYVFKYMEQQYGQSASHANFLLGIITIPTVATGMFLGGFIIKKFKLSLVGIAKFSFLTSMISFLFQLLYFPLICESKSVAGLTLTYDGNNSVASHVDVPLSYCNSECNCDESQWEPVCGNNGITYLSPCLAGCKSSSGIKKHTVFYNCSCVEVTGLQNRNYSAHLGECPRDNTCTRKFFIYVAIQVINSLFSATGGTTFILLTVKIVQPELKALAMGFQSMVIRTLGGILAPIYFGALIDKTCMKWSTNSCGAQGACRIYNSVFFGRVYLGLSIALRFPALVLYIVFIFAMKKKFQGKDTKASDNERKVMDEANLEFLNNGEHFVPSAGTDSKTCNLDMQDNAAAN
Briefly: Substrates of transporters of clinical importance in the absorption and disposition of drugs, OATP1B3.

The target of data set [7] is ATP-binding cassette sub-family C member 2 (Homo sapiens, UniProt Q92887). Briefly: Substrates of transporters of clinical importance in the absorption and disposition of drugs, MRP2.
Chain of ATP-binding cassette sub-family C member 2 (Q92887 whole entry): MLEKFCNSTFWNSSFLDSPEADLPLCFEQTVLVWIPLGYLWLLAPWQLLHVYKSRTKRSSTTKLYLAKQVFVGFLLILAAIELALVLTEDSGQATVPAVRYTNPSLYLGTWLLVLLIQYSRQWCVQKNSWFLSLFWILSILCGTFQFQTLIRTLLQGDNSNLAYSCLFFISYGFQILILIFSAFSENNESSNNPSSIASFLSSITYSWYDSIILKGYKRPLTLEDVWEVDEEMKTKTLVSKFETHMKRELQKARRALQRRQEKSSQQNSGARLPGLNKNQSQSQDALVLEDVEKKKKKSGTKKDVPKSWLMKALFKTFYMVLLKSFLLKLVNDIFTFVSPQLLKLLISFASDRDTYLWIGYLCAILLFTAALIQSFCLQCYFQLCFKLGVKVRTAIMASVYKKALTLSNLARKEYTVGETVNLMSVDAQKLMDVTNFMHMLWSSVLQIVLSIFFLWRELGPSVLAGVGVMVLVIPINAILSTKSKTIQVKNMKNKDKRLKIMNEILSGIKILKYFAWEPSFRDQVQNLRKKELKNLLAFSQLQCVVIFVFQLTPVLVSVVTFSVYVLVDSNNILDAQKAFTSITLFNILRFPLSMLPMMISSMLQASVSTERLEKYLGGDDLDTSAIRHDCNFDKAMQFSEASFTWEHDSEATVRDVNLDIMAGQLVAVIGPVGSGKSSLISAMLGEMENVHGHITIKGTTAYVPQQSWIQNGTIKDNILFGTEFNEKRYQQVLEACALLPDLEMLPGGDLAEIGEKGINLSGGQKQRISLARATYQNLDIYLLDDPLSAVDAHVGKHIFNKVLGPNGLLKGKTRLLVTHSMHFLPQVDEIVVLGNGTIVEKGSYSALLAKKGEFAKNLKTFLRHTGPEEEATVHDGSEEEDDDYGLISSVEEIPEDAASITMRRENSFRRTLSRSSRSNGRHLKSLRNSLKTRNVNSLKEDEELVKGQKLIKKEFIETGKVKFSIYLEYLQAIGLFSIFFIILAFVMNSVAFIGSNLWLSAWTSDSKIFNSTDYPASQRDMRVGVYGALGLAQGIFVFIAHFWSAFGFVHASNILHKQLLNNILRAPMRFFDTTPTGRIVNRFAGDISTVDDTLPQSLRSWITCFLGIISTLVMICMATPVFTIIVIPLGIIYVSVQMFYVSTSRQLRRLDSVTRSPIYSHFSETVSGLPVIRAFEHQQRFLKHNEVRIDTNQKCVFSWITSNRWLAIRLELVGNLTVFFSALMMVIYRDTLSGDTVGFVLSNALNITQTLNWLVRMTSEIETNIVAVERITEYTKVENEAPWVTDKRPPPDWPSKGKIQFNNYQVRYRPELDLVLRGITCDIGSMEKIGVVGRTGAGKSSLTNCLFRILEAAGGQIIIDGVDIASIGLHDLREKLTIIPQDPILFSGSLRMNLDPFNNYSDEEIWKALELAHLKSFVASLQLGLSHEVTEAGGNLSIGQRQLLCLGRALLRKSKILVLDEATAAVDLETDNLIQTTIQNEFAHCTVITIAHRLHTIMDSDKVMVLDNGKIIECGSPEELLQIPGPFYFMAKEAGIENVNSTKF

With `Nc1ncnc2c1ncn2CCOCP(=O)(O)O` [ADEFOVIR], the Activity entry in data set [1] and in data set [2] was “transporter substrate” throughout.

`CCCCNc1cc(C(=O)O)cc(S(N)(=O)=O)c1Oc1ccccc1` [BUMETANIDE]: in data set [3], the Activity entry is on record as “transporter substrate”.

Turning to `N[C@@H](C(=O)N[C@@H]1C(=O)N2C(C(=O)O)=C(Cl)CS[C@H]12)c1ccccc1` [CEFACLOR ANHYDROUS], the Activity result in data set [3] is reported as “transporter substrate”.

Turning to `CO/N=C(\C(=O)N[C@@H]1C(=O)N2C(C(=O)O)=CCS[C@H]12)c1csc(N)n1` [CEFTIZOXIME], in data set [3], the Activity result is given as “transporter substrate”.

As for `Nc1ccn(C[C@@H](CO)OCP(=O)(O)O)c(=O)n1.O.O` [CIDOFOVIR], the Activity entry in data set [1] was “transporter substrate”.

`NS(=O)(=O)c1cc(C(=O)O)c(NCc2ccco2)cc1Cl` [FUROSEMIDE]: the Activity entry in data set [3] and in data set [2] was “transporter substrate” throughout.

In the case of `COc1ccc(Cl)cc1C(=O)NCCc1ccc(S(=O)(=O)NC(=O)NC2CCCCC2)cc1` [GLYBURIDE], the Activity result in data set [4] was “transporter substrate”.

As for `CCCc1nc(C(C)(C)O)c(C(=O)O)n1Cc1ccc(-c2ccccc2-c2nnn[nH]2)cc1` [OLMESARTAN], the Activity result in data set [5], in data set [6] and in data set [7] was “transporter substrate” throughout.

For the molecule `C[C@H](Cn1cnc2c(N)ncnc21)OCP(=O)(O)O` [TENOFOVIR ANHYDROUS], the Activity entry in data set [1] and in data set [2] was “transporter substrate” each time.

With `Nc1ccn([C@H]2CC[C@@H](CO)O2)c(=O)n1` [ZALCITABINE], in data set [1], the Activity entry was “transporter substrate”.

Regarding `Cc1cn([C@H]2C[C@H](N=[N+]=[N-])[C@@H](CO)O2)c(=O)[nH]c1=O` [ZIDOVUDINE], in data set [1], the Activity result is given as “transporter substrate”.

(Values after ChEMBL document CHEMBL1743141, “Membrane transporters in drug development” (Nat Rev Drug Discov, 2010).)
